Broadly, the melting point is the temperature of the solid-liquid transition.

One series relates to Aβ40. The experiment in a line: In vivo efficacy: brain level of soluble Aβ40, non-transgenic rodents, single oral dose 30 mg/kg, 4 h, MSD electrochemiluminescence, untreated control = 100. Also on record: species or system mouse. Particulars: Mus musculus, read-out: Aβ40 (% vs Ctrl) _Mean. From the text: (§1) To determine whether acute administration of an Aβ42 lowering agent would reduce Aβ42 levels in vivo, non-transgenic rodents, e.g. mice or rats were used. Animals treated with the Aβ42 lowering agent were examined and compared to those untreated or treated with vehicle and brain levels of soluble Aβ42, Aβ40, Aβ38, and Aβ37 were quantitated by Meso Scale Discovery's (MSD) electrochemiluminescence detection technology. Treatment periods varied from hours (h) to days and were adjusted based on the results of the Aβ42 lowering once a time course of onset of effect could be established.
(§2) A typical protocol for measuring Aβ42 lowering in vivo is shown but it is only one of many variations that could be used to optimize the levels of detectable Aβ. For example, Aβ42 lowering compounds were formulated in 20% of Captisol® (a sulfobutyl ether of β-cyclodextrin) in water or 20% hydroxypropyl β cyclodextrin. The Aβ42 lowering agents were administered as a single oral dose or by any acceptable route of administration to overnight fasted animals. After 4 h, the animals were sacrificed and Aβ42 levels were analysed.
(§3) Blood was collected by decapitation and exsanguinations in EDTA-treated collection tubes. Blood was centrifuged at 1900 g for 10 minutes (min) at 4° C. and the plasma recovered and flash frozen for later analysis. The brain was removed from the cranium and hindbrain. The cerebellum was removed and the left and right hemisphere were separated. The left hemisphere was stored at −18° C. for quantitative analysis of test compound levels. The right hemisphere was rinsed with phosphate-buffered saline (PBS) buffer and immediately frozen on dry ice and stored at −80° C. until homogenization for biochemical assays.
(§4) Mouse brains from non-transgenic animals were resuspended in 8 volumes of 0.4% DEA (diethylamine)/50 mM NaCl containing protease inhibitors (Roche-11873580001 or 04693159001) per gram of tissue, e.g. for 0.158 g brain, add 1.264 ml of 0.4% DEA. All samples were homogenized in the FastPrep-24 system (MP Biomedicals) using lysing matrix D (MPBio #6913-100) at 6 m/s for 20 seconds. Homogenates were centrifuged at 20800×g for 5 min and supernatants collected. Supernatants were centrifuged at 221.300×g for 50 min. The resulting high speed supernatants were then transferred to fresh eppendorf tubes. Nine parts of supernatant were neutralized with 1 part 0.5 M Tris-HCl pH 6.8 and used to quantify Aβ.
(§5) To quantify the amount of Aβ42, Aβ40, Aβ38, and Aβ37 in the soluble fraction of the brain homogenates, simultaneous specific detection of Aβ42, Aβ40, Aβ38, and Aβ37 was performed using MSD's electro-chemiluminescence multiplex detection technology. In this assay purified monoclonal antibodies specific for Abeta37 (JRD/Aβ37/3), Abeta38 (J&JPRD/Aβ38/5), Abeta40 (JRF/cAβ40/28), and Abeta42 (JRF/cAβ42/26) were coated on MSD 4-plex plates. Briefly, the standards (a dilution of synthetic Aβ42, Aβ40, Aβ38, and Aβ37) were prepared in 1.5 ml Eppendorf tube in Ultraculture, with final concentrations ranging from 10000 to 0.3 pg/m. The samples and standards were co-incubated with Sulfo-tag labelled JRF/rAß/2 antibody to the N-terminus of Aβ as detector antibody. 50 μl of conjugate/sample or conjugate/standards mixtures were then added to the antibody-coated plate. The plate was allowed to incubate overnight at 4° C. in order to allow formation of the antibody-amyloid complex. Following this incubation and subsequent wash steps the assay was finished by adding read buffer according to the manufacturer's instructions (Meso Scale Discovery, Gaitherburg, Md.).
The SULFO-TAG emits light upon electrochemical stimulation initiated at the electrode. MSD Sector instrument SI6000 was used for signal read-out. […]

Another series concerns Aβ42. Nature of the series: In vivo efficacy: brain level of soluble Aβ42, non-transgenic rodents, single oral dose 30 mg/kg, 4 h, MSD electrochemiluminescence, untreated control = 100. Also on record: species or system mouse. Particulars: Mus musculus, read-out: Aβ42 (% vs Ctrl) _Mean.
Description: as §1, §2, §3, §4, §5
(§6) The SULFO-TAG emits light upon electrochemical stimulation initiated at the electrode. MSD Sector instrument SI6000 was used for signal read-out.
In this model a Aß42 lowering compared to untreated animals would be advantageous, in particular a Aß42 lowering with at least 10%, more in particular a Aß42 lowering with at least 20%. […]

The next series concerns Aβ38. Nature of the series: In vivo efficacy: brain level of soluble Aβ38, non-transgenic rodents, single oral dose 30 mg/kg, 4 h, MSD electrochemiluminescence, untreated control = 100. Also on record: species or system mouse. The conditions noted are these: Mus musculus, read-out: Aβ38 (% vs Ctrl) _Mean.
Description: To determine whether acute administration of an Aβ38 increasing agents would increase Aβ38 levels in vivo, non-transgenic rodents, e.g. mice or rats were used. Animals treated with the Aβ38 increasing agents were examined and compared to those untreated or treated with vehicle and brain levels of soluble Aβ42, Aβ40, Aβ38, and Aβ37 were quantitated by MSD electrochemiluminescence detection technology.
Treatment periods varied from hours (h) to days and were adjusted based on the results of the Aβ38 increase once a time course of onset of effect could be established.
A typical protocol for measuring Aβ38 increase in vivo is shown but it is only one of many variations that could be used to optimize the levels of detectable Aβ. For example, Aβ38 increasing agents were formulated in 20% of Captisol® (a sulfobutyl ether of β-cyclodextrin) in water or 20% hydroxypropyl β cyclodextrin. The Aβ38 increasing agents were administered as a single oral dose or by any acceptable route of administration to overnight fasted animals. After 4 h, the animals were sacrificed and Aβ38 levels were analysed.
as §3, §4
as §5, with “[…].” for “pg/m.”
as §6
In this model a Aß38 increase compared to untreated animals would be advantageous, in particular a Aß38 increase with at least 10%, more in particular a Aß38 increase with at least 20%. […]

Counter-ions that a name gives are not always drawn. Like-named read-outs stand apart in the source and are kept apart here.

`Cc1cn(-c2ccc3n(c2=O)C[C@@H](C)N(Cc2coc4c(C(F)(F)F)cccc24)C3=O)cn1` [Compound 71] showed a melting point of 225 °C.

In turn, `Cc1cn(-c2ccc3n(c2=O)C[C@@H](C)N(Cc2cc4cc(C(F)(F)F)ccc4o2)C3=O)cn1` [Compound 26] gave a melting point of 164 °C.

Turning to `Cc1cn(-c2ccc3n(c2=O)C[C@@H](C)N(Cc2coc4ccc(OC(F)(F)F)cc24)C3=O)cn1` [Compound 83], the response vs control in vivo at 30 mg/kg with Aβ40 (sc, 30 mpk sc (footnote *)) turned out to be 41%; in the series with Aβ42 (sc, 30 mpk sc), 40%; in the series with Aβ38 (sc, 30 mpk sc), 166%.

Take `Cc1cn(-c2ccc3n(c2=O)CC(C)N(C(C)c2coc4cc(F)c(Cl)cc24)C3=O)cn1` (single isomer, unassigned) [Compound 65]: the response vs control in vivo at 30 mg/kg came out at 52% in the series on Aβ40 (po, dose 30 mg/kg oral dosing); 58% in the series on Aβ42 (po, dose 30 mg/kg oral dosing); 165% with Aβ38 (po, dose 30 mg/kg oral dosing).

Regarding `Cc1cn(-c2ccc3n(c2=O)C[C@@H](C)N(Cc2coc4c(Cl)c(Cl)ccc24)C3=O)cn1` [Compound 97], the melting point turned out to be 227 °C.

Turning to `Cc1cn(-c2ccc3n(c2=O)C[C@@H](C)N(Cc2csc(C(F)(F)F)c2)C3=O)cn1` [Compound 28], the melting point was 162 °C.

`Cc1cn(-c2ccc3n(c2=O)CC(C)N(Cc2noc4ccc(Cl)cc24)C3=O)cn1` (centres unmarked) [Compound 14] showed a melting point of 147 °C.

Turning to `Cc1cn(-c2ccc3n(c2=O)CC(C)N(C(C)c2ccc(OC(F)(F)F)c(O)c2)C3=O)cn1` (centres unmarked) (as salt: HCl) [Compound 52], the melting point was 223 °C.

For the compound `Cc1cn(-c2ccc3n(c2=O)CC(C)N(C(C)c2coc4ccc(C(F)(F)F)cc24)C3=O)cn1` (centres unmarked) [Compound 79], the response vs control in vivo at 30 mg/kg with Aβ40 (sc, 30 mpk sc (footnote *)) was found to be 62%; in the series with Aβ42 (sc, 30 mpk sc), 54%; with Aβ38 (sc, 30 mpk sc), 175%.

As for `Cc1cn(-c2ccc3n(c2=O)CC(C)N(C(C)c2cc(OC4CC4)cc(C(F)(F)F)c2)C3=O)cn1` (centres unmarked) (as salt: HCl) [Compound 48], the melting point was 122 °C.

For the compound `Cc1cn(-c2ccc3n(c2=O)CCN(Cc2coc4c(F)cc(Cl)cc24)C3=O)cn1` [Compound 56], the melting point stood at 232 °C.

For the compound `Cc1cn(-c2ccc3n(c2=O)C[C@@H](C)N(Cc2coc4c(F)cc(Cl)cc24)C3=O)cn1` [Compound 62], the response vs control in vivo at 30 mg/kg with Aβ40 (po, dose 30 mg/kg oral dosing) stood at 87%; in the series on Aβ42 (po, dose 30 mg/kg oral dosing) it was 82%; in the series with Aβ38 (po, dose 30 mg/kg oral dosing), 113%.

As to `Cc1cn(-c2ccc3n(c2=O)C[C@@H](C)N(Cc2cnn4ccc(C(F)(F)F)cc24)C3=O)cn1` [Compound 9], the melting point was 170 °C.

On to `Cc1cn(-c2ccc3n(c2=O)C[C@@H](C)N(CCc2cc(OC4CC4)cc(C(F)(F)F)c2)C3=O)cn1` (as salt: HCl) [Compound 40], for which the melting point amounted to 102 °C.

Compound `Cc1cn(-c2ccc3n(c2=O)C[C@@H](C)N(Cc2csc(CC(F)(F)F)c2)C3=O)cn1` [Compound 29] displayed a melting point of 110 °C.

Turning to `Cc1cn(-c2ccc3n(c2=O)C[C@@H](C)N(Cc2coc4cc(F)c(Cl)cc24)C3=O)cn1` [Compound 63], the response vs control in vivo at 30 mg/kg in the series on Aβ40 (sc, 30 mpk sc (footnote *)) turned out to be 62%; with Aβ42 (sc, 30 mpk sc), 58%; with Aβ38 (sc, 30 mpk sc), 135%.

Compound `Cc1cn(-c2ccc3n(c2=O)CCN(C(C)c2coc4cc(C(F)(F)F)ccc24)C3=O)cn1` (single isomer, unassigned) [Compound 67] showed a melting point of 200 °C.

On to `Cc1cn(-c2ccc3n(c2=O)CCN(C(C)c2coc4cc(C(F)(F)F)ccc24)C3=O)cn1` (single isomer, unassigned) [Compound 68], for which the melting point was determined as 204 °C.

`Cc1cn(-c2ccc3n(c2=O)CC(C)N(C(C)c2ccc(OC(F)(F)F)c(O)c2)C3=O)cn1` (centres unmarked) (as salt: HCl) [Compound 51] registered a melting point of 212 °C.

`Cc1cn(-c2ccc3n(c2=O)C[C@@H](C)N(CC2(c4cc(OC5CC5)cc(C(F)(F)F)c4)CC2)C3=O)cn1` (as salt: HCl) [Compound 53] registered a melting point of 197 °C.

`Cc1cn(-c2ccc3n(c2=O)C[C@@H](C)N(Cc2noc4ccc(C(F)(F)F)cc24)C3=O)cn1` [Compound 101] gave a melting point of 140 °C.

On to `Cc1cn(-c2ccc3n(c2=O)CC(C)N(CCN2CCCC(C(F)(F)F)C2)C3=O)cn1` (centres unmarked) (as salt: HCl) [Compound 43], for which the melting point came out at 138 °C.

`Cc1cn(-c2ccc3n(c2=O)CCN(C(C)c2coc4cc(F)c(Cl)cc24)C3=O)cn1` (single isomer, unassigned) [Compound 60] yielded a melting point of 234 °C.

In turn, `Cc1cn(-c2ccc3n(c2=O)C[C@@H](C)N(Cc2cc(OC4CC4)cc(C(F)(F)F)c2)C3=O)cn1` (as salt: HCl) [Compound 33] showed a melting point of 149 °C.

As to `Cc1cn(-c2ccc3n(c2=O)CC(C)N(Cc2ccc(C)c(N4CC5CC5C4)c2)C3=O)cn1` (centres unmarked) (as salt: HCl) [Compound 30], the melting point amounted to 122 °C.

With `Cc1cn(-c2ccc3n(c2=O)C[C@@H](C)N(Cc2cc(C(C)C)nn2CC(F)(F)F)C3=O)cn1` [Compound 19], the melting point was found to be 144 °C.

`Cc1cn(-c2ccc3n(c2=O)CCN(CC2Cc4c(cccc4C(F)(F)F)O2)C3=O)cn1` (centres unmarked) [Compound 44] displayed a melting point of 128 °C.

Regarding `Cc1cn(-c2ccc3n(c2=O)CC(C)N(C(C)c2coc4c(F)cc(Cl)cc24)C3=O)cn1` (centres unmarked) [Compound 96], the melting point is 201 °C.

The values above are taken from patent US10562897B2, “Substituted 3,4-dihydro-2H-pyrido[1,2-a]pyrazine-1,6-diones as gamma secretase modulators” (Janssen Pharmaceutica NV, priority 2014, dated 2020).
